# Source: US11111264B2, “Morphic forms of 4-amino-7-(3,4-dihydroxy-5-(hydroxymethyl)tetrahydrofuran-2-yl)-2-methyl-7H-pyrrolo[2,3-d]pyrimidine-5-carboxamide and uses thereof” (Chimerix, Inc., priority 2017, dated 2021)
# Key:
# Format in all cases: physicochemical
# [1] = Approximate solubility of Compound 1 in various solvents (stepwise solvent addition); conditions: thermodynamic from solid, read-out: Solubility [S, mg/mL]
# Description: To determine approximate solubility of Compound 1, solvent was added in steps to the solid material (about 20 to 100 mg). The solubility values were rough approximations. Therefore, these values were used solely for the preliminary design of subsequent crystallization experiments.
# [2] = Exact solubility of Compound 1 Form A in selected solvent systems (1 day suspension, HPLC); conditions: for solubility at 1 day: thermodynamic from solid
# Description: The exact solubilities of Compound 1 Form A in selected solvent systems were determined at 24° C. and 60° C. About 100 mg of Compound 1 Form A were suspended in 2.0 mL of solvent and stirred using a magnetic stirrer bar for 1 day at 24° C. or 60° C., followed by filter centrifugation at the corresponding temperature. The concentration of Compound 1 was then determined by HPLC.
# The exact solubilities of Form A in selected solvent systems were determined at 24° C. and 60° C. About 100 mg of Compound 1 were suspended in 2.0 mL of solvent and stirred using a magnetic stirrer bar for 1 day at 24° C. or 60° C., followed by filter centrifugation at the corresponding temperature. The concentration of Compound 1 was then determined by HPLC.
# [3] = Chemical stability when stirring suspension at 75° C. (Experiment No. 26); conditions: 1-propanol/0.01 M NaOH aq 1:2 v/v; stirring at 75° C. overnight
# Description: Experiment No. 26 tested seeding behavior at 75° C. at the 16 g scale as well as chemical stability when stirring suspensions at 75° C. for extended times.
# 16.02 g of Compound 1 were placed in a 300 mL glass reactor (diameter 70 mm) and 200 mL of 1-propanol/0.01 M NaOH aq 1:2 v/v were added at room temperature. The suspension was stirred using a two-bladed impeller (diameter 40 mm; 500 rpm) and heated to 90° C. in 30 minutes. After stirring at 90° C. for about 15 minutes (500 rpm) the solution formed was cooled to 75° C. with a cooling rate of 15K/hour and stirred at 75° C. for 10 minutes.
# At 75° C. the solution was seeded with a suspension of 158 mg of crude Compound 1 in 5 mL of water. The weak suspension formed was stirred at 75° C. overnight followed by hot filtration (sintered glass funnel, porosity P4, diameter 65 mm; the suspension was easy to filter). The glass reactor was flushed with 20 mL of water and the washing suspension was also filtered. The filter cake was again washed with 20 mL of water and air dried for 20 minutes by drawing ambient air through the glass funnel.
compound,measurement,setting,value
"Cc1nc(N)c2c(C(N)=O)cn([C@@H]3O[C@H](CO)[C@@H](O)[C@H]3O)c2n1 [Compound 1, 4-amino-7-((2R,3R,4S,5R)-3,4-dihydroxy-5-(hydroxymethyl)tetrahydrofuran-2-yl)-2-methyl-7H-pyrrolo[2,3-d]pyrimidine-5-carboxamide]",solubility,"[1]; aqueous buffer, NaOH aq 0.1M, 60° C.",~9 mg/mL
same,solubility,"[1]; aqueous buffer, NaOH aq 0.1M, RT",~3 mg/mL
same,solubility,"[1]; aqueous buffer, NaOH aq 0.5M, 60° C.",~38 mg/mL
same,solubility,"[1]; aqueous buffer, NaOH aq 0.5M, RT",~16 mg/mL
same,solubility,"[1]; aqueous buffer, NaOH aq 1M, 60° C.",~95 mg/mL
same,solubility,"[1]; aqueous buffer, NaOH aq 1M, RT",~60 mg/mL
same,solubility,"[1]; aqueous with cosolvent or surfactant or cyclodextrin, 1-Propanol/water 1:2 v/v, RT",~6 mg/mL
same,solubility,"[1]; aqueous with cosolvent or surfactant or cyclodextrin, 1-Propanol/water 1:2 v/v, at 80° C.",~51 mg/mL
same,solubility,"[1]; aqueous with cosolvent or surfactant or cyclodextrin, 1-Propanol/water 2:1 v/v, RT",~7 mg/mL
same,solubility,"[1]; aqueous with cosolvent or surfactant or cyclodextrin, 2-Propanol/NaOH aq 0.1M 1:1 v/v, RT",~16 mg/mL
same,solubility,"[1]; aqueous with cosolvent or surfactant or cyclodextrin, 2-Propanol/water 1:1 v/v, RT",~7 mg/mL
same,solubility,"[1]; aqueous with cosolvent or surfactant or cyclodextrin, 2-Propanol/water 1:2 v/v, RT",~5 mg/mL
same,solubility,"[1]; aqueous with cosolvent or surfactant or cyclodextrin, 2-Propanol/water 1:2 v/v, at 70° C.",~31 mg/mL
same,solubility,"[1]; aqueous with cosolvent or surfactant or cyclodextrin, 2-Propanol/water 2:1 v/v, RT",~6 mg/mL
same,solubility,"[1]; aqueous with cosolvent or surfactant or cyclodextrin, DMSO/NaOH aq 0.1M 1:1 v/v, RT",~20 mg/mL
same,solubility,"[1]; aqueous with cosolvent or surfactant or cyclodextrin, DMSO/water 1:1 v/v, RT",~8 mg/mL
same,solubility,"[1]; aqueous with cosolvent or surfactant or cyclodextrin, DMSO/water 1:1 v/v, at 80° C.",~45 mg/mL
same,solubility,"[1]; aqueous with cosolvent or surfactant or cyclodextrin, DMSO/water 1:2 v/v, RT",~3 mg/mL
same,solubility,"[1]; aqueous with cosolvent or surfactant or cyclodextrin, THF/water 1:1 v/v, RT",~22 mg/mL
same,solubility,"[1]; aqueous with cosolvent or surfactant or cyclodextrin, THF/water 1:4 v/v, RT",~6 mg/mL
same,solubility,"[1]; aqueous with cosolvent or surfactant or cyclodextrin, THF/water 4:1 v/v, RT",~15 mg/mL
same,solubility,"[1]; organic solvent or mixture, DMSO, RT",~500 mg/mL
same,solubility,"[1]; organic solvent or mixture, Ethanol, RT",1.7 mg/mL
same,solubility,"[1]; organic solvent or mixture, THF, RT",< 1 mg/mL
same,solubility,"[1]; Water, 60° C.",~3 mg/mL
same,solubility,"[1]; Water, RT",< 1.3 mg/mL
same,solubility at 1 day,"[2]; 0.1 M aqueous NaOH, aqueous buffer, NaOH aq 0.1M, 24° C.",2.8 mg/mL
same,solubility at 1 day,"[2]; 0.1 M aqueous NaOH, aqueous buffer, NaOH aq 0.1M, 60° C.",8 mg/mL
same,solubility at 1 day,"[2]; DMSO/0.01 M aqueous NaOH 1:2 v/v, aqueous with cosolvent or surfactant or cyclodextrin, DMSO/NaOH aq 0.01M 1:2 v/v, 24° C.",4.8 mg/mL
same,solubility at 1 day,"[2]; DMSO/0.01 M aqueous NaOH 1:2 v/v, aqueous with cosolvent or surfactant or cyclodextrin, DMSO/NaOH aq 0.01M 1:2 v/v, 60° C.",19.6 mg/mL
same,solubility at 1 day,"[2]; DMSO/0.1 M aqueous NaOH 1:2 v/v, aqueous with cosolvent or surfactant or cyclodextrin, DMSO/NaOH aq 0.1M 1:2 v/v, 24° C.",12.5 mg/mL
same,solubility,"[2]; NaOH aq 0.01M, 24° C.",0.81 mg/mL
same,solubility at 1 day,"[2]; aqueous with cosolvent or surfactant or cyclodextrin, 1-Propanol/NaOH aq 0.01M 1:3 v/v, 24° C.",6.8 mg/mL
same,solubility at 1 day,"[2]; aqueous with cosolvent or surfactant or cyclodextrin, 1-Propanol/NaOH aq 0.01M 1:3 v/v, 60° C.",25.9 mg/mL
same,solubility at 1 day,"[2]; aqueous with cosolvent or surfactant or cyclodextrin, 1-Propanol/NaOH aq 0.1M 1:3 v/v, 24° C.",16.6 mg/mL
same,solubility at 1 day,"[2]; aqueous with cosolvent or surfactant or cyclodextrin, 1-Propanol/water 1:2 v/v, 60° C.",30.9 mg/mL
same,solubility at 1 day,"[2]; aqueous with cosolvent or surfactant or cyclodextrin, 2-Propanol/NaOH aq 0.01M 1:3 v/v, 24° C.",5.2 mg/mL
same,solubility at 1 day,"[2]; aqueous with cosolvent or surfactant or cyclodextrin, 2-Propanol/NaOH aq 0.01M 1:3 v/v, 60° C.",16.9 mg/mL
same,solubility at 1 day,"[2]; aqueous with cosolvent or surfactant or cyclodextrin, 2-Propanol/NaOH aq 0.1M 1:3 v/v, 24° C.",14.1 mg/mL
same,solubility at 1 day,"[2]; aqueous with cosolvent or surfactant or cyclodextrin, 2-Propanol/water 1:2 v/v, 60° C.",26.6 mg/mL
same,solubility at 1 day,"[2]; aqueous with cosolvent or surfactant or cyclodextrin, DMSO/water 1:1 v/v, 60° C.",18.7 mg/mL
same,solubility at 1 day,"[2]; aqueous with cosolvent or surfactant or cyclodextrin, Ethanol/NaOH aq 0.01M 1:3 v/v, 24° C.",3.3 mg/mL
same,solubility at 1 day,"[2]; aqueous with cosolvent or surfactant or cyclodextrin, Ethanol/NaOH aq 0.01M 1:3 v/v, 60° C.",15.3 mg/mL
same,solubility at 1 day,"[2]; aqueous with cosolvent or surfactant or cyclodextrin, Ethanol/NaOH aq 0.1M 1:3 v/v, 24° C.",9 mg/mL
same,chemical stability of suspension,[3],chemically stable
